Source: PMC3964211, “Pharmacokinetic modeling optimizes inhibition of the ‘undruggable’ EWS-FLI1 transcription factor in Ewing Sarcoma” (Oncotarget, 2013)

Assay: Pharmacokinetics in SD rats, single oral gavage
Assay type: in vivo, Sprague-Dawly (SD) rats
Settings: analyte (S)-YK-4-279 in plasma
Description: To optimize dosing in animals, we determined the pharmacokinetics of YK-4-279 and its single enantiomers in Sprague-Dawly (SD) rats. Three rats of each gender were assigned to nine dose groups. Animals in Groups 1 through 3 received a single intravenous (IV) injection of racemic mixture, (S)-YK-4-279, or (R)-YK-4-279 at a dose of 25 mg/kg. Animals in Groups 4 through 9 received a single oral gavage administration of racemic mixture, (S)-YK-4-279, or (R)-YK-4-279 at a dosage level of 25 or 50 mg/kg. […] However, given that approximately 50 percent of the racemic mixture is (S)-YK-4-279 and the clearance […] the dose, the IV clearance of (S)-YK-4-279 is considered to be similar whether a racemic mixture or only (S)-YK-4-279 is administered. Systemic exposure to (S)-YK-4-279 was evaluated using Cmax and AUC values. Cmax and AUC8 values were similar between males and females for a given dose group. With an expected enantiomer ratio of 1:1 in the racemic dose, Group 2 animals would have received a 2-fold higher dose of (S)-YK-4-279 than Group 1 animals. […] Absolute bioavailability of (S)-YK-4-279 following gavage administration, using cremophor/ethanol as an excipient, in SD rats was only 2–6% (Table 2).
Nine SD rats of each gender were assigned to nine dose groups. Groups 1 through 3 received a single IV injection of racemic mixture, (S)-YK-4-279, or (R)-YK-4-279 at a dose of 25 mg/kg. Groups 4 through 9 received a single gavage administration of racemic mixture, (S)-YK-4-279, or (R)-YK-4-279 at a dosage level of 25 or 50 mg/kg. Blood samples were collected from one animal per group per time point at target time points of pre-dose, 5, 15, 30 and 60 minutes, and 2, 4, 8 and 12 hours following dosing. Plasma was obtained from the samples and analyzed for (S) and (R)-YK-4-279 concentrations.
The plasma and tumor sample analysis was performed using calibration standards and Quality Control (QC) samples prepared in control rat or mouse plasma and tumor tissues. Plasma and tumor calibration standards were prepared from stock solutions of YK-4-279. The calibration standards, blanks, QC samples, and study samples were then processed by solid-liquid extraction (SLE) followed by analysis using liquid chromatography with mass spectrometry (LC-MS). The LC-MS systems used for the analysis of YK-4-279 was composed of Shimadzo prominence pump and auto-sampler (Kyoto, Japan), a Sciex API 5000 MS (Toronto, Ontario), with turbo ion spary in the positive ion mode. The samples for the analysis of total YK-4-279 were injected into a 50 × 2 mm Gemini- NX, 5 ¼m column (Phenomenex, Torrance, CA). The samples for the analysis of the specific enantiomers of YK-4-279 were injected into a 150 × 2 mm Lux Cellulose-2, 3 ¼m Phenomenex column. The transitions monitored were 366 amu to 135 amu for YK-4-279 and 369 amu to 138 amu for the YK-4-279-d3 internal standard. YK-4-279 concentrations were calculated using peak area response ratios and a regression equation constructed from the concentrations and peak area response ratios of the calibration standards. The lower limit of quantitation was 5.0 ng/mL in plasma and […] in tumor tissue. The concentration-time profiles were evaluated by compartmental modeling and non-compartmental analysis using WinNonlin (Pharsight Corporation, Mountain View, CA). The PK parameters obtained from the compartmental modeling were used in simulations to identify optimal dose level and dosing schedule for maintaining plasma concentration of (S)-YK-4-279 above 3 ¼M.

[1] = female (n=9), oral gavage 25 mg/kg
[2] = female (n=9), oral gavage 50 mg/kg
[3] = male (n=9), oral gavage 25 mg/kg
[4] = male (n=9), oral gavage 50 mg/kg

Structure (SMILES) | AUClast [1] | AUC∞ [1] | Absolute Bioavailability [1] | Apparent Clearance [1] | Observed Cmax [1] | Observed Tmax [1] | Terminal Elimination Half-Life [1] | AUClast [2] | AUC∞ [2] | Absolute Bioavailability [2] | Apparent Clearance [2] | Observed Cmax [2] | Observed Tmax [2] | Terminal Elimination Half-Life [2] | AUClast [3] | AUC∞ [3] | Absolute Bioavailability [3] | Apparent Clearance [3] | Observed Cmax [3] | Observed Tmax [3] | other results
COc1ccc(C(=O)CC2(O)C(=O)Nc3c(Cl)ccc(Cl)c32)cc1 (centres unmarked) [YK-4-279] | 1.07 hr*¼M | 1.31 hr*¼M | 5.06% | 52,200 mL/hr/kg | 0.513 ¼M | 30 min | 1.56 h | 3.09 hr*¼M | 3.14 hr*¼M | 6.07% | 43,400 mL/hr/kg | 0.647 ¼M | 30 min | 1.97 h | 0.563 hr*¼M | 0.754 hr*¼M | 2.83% | 90,300 mL/hr/kg | 0.142 ¼M | 60 min | Terminal Elimination Half-Life [3]: 3.84 h; AUClast [4]: 1.04 hr*¼M; AUC∞ [4]: 1.18 hr*¼M; Absolute Bioavailability [4]: 2.21%; Apparent Clearance [4]: 116,000 mL/hr/kg; Observed Cmax [4]: 0.241 ¼M; Observed Tmax [4]: 120 min; Terminal Elimination Half-Life [4]: 4.23 h
COc1ccc(C(=O)C[C@]2(O)C(=O)Nc3c(Cl)ccc(Cl)c32)cc1 [(R)-YK-4-279] | BLOQ | BLOQ | BLOQ | BLOQ | BLOQ | BLOQ | BLOQ | BLOQ | BLOQ | BLOQ | BLOQ | BLOQ | BLOQ | BLOQ | BLOQ | BLOQ | BLOQ | BLOQ | BLOQ1 | BLOQ | Terminal Elimination Half-Life [3]: BLOQ; AUClast [4]: BLOQ; AUC∞ [4]: BLOQ; Absolute Bioavailability [4]: BLOQ; Apparent Clearance [4]: BLOQ; Observed Cmax [4]: BLOQ; Observed Tmax [4]: BLOQ; Terminal Elimination Half-Life [4]: BLOQ
